Assay results taken from US4642364A, “Unsaturated eicosanoic acids” (Hoffmann-La Roche Inc., priority 1986, dated 1987).

Columns and labels:
[1] = system: SRS-A synthesis (Rat Peritoneal Cells); assay: Inhibition of the in vitro synthesis of SRS-A in rat peritoneal cells (ionophore A23187 challenge, guinea pig ileum bioassay); format: cell-based, rat (male Sprague-Dawley); conditions: for inhibition at 10 µM: p values given
Description: To study the effect of drugs on SRS-A synthesis in rat peritoneal cells, these cells (including mast cells, monocytes, eosinophils and neutrophils)were isolated from male Sprague-Dawley rats (Charles River Laboratories) weighing 180-220 g by the lavage procedure described by Herzig, D. J. and Kusner, E. J., Journal of Pharmacology and Experimental Therapeutics, 194, 457-462 (1975) with the exception that Hanks balanced salt solution used in these experiments was adjusted to pH 6.9 with 5% (V/V) of 0.1M aqueous phosphate buffer and contained 50 m/gml sodium heparin. After removal from the peritoneal cavity of rats, the cells were subsequently isolated by centrifugation at 400×gravity for 10 minutes at 4° C. and resuspended to a concentration of about 2,000,000 cells per ml in Hanks buffer.
Samples for evaluation were prepared by adding various concentrations of test drugs to 2 ml aliquots of the resuspended cells in Hanks buffer. The 2 ml samples used for control contained 2 ml aliquots of resuspended cells in Hanks buffer without drugs. All of the above samples (2 ml final volume) were preincubated at 37° C. for 10 minutes in the presence of varying concentrations of test drug prior to challenge with 5×10^-7 M ionophore […]. This ionophore is disclosed in Burka and Flower, Br. J. Pharmacology 65: 35-41 (1979). Antibiotic A23187 was used as a probe for the study of calcium and magnesium function in biological systems. After ionophore challenge, SRS-A was synthesized in the samples by the cells for 10 minutes (at 37° C.) after which this synthesis was terminated by placing the samples in a boiling water bath for 10 minutes followed by centrifugation at 2,000×g (10 minutes) at 4° C. to remove coagulated protein and cellular debris. The SRS-A present in the resulting supernatants was quantitated by a bioassay using a guinea pig ileum as described in Orange, and Austen, Adv. Immunol. 10: 105-144 144 (1969). For this bioassay, a 1.5 cm segment of ileum was removed from animals weighing 300 to 400 g and suspended in an organ bath containing 10 ml of Tyrodes solution with 10^-6 M atropine sulfate and 10^-6 M pyrilamine maleate. The bath was maintained at 37° C. and aerated with a mixture of 95% O2 and 5%CO2. The concentration of SRS-A in the experimental samples was determined by a comparison of the isotonic contraction responses elicited by the samples with those obtained with varying amounts of an SRS-A standard solution prepared from chopped guinea pig lung as disclosed in Hitchcock, M. J. Pharmacol. Exp. Ther. 207: 630-640 (1978) and quantituted by the procedures of Orange, R. R. and Austen, K. F. Adv. Immunol. 10: 105-144 (1969) against histamine (1 unit of SRS-A being that amount which gives a contractile response similar to that of […] of histamine). In the absence of drug, the ionophore A23187-induced SRS-A synthesis varied between 40 to 50 units of SRS-A per 10^6 cells. In the presence of increasing concentrations of test drug, there was a concentration-related decrease in SRS-A synthesis. [formula] at each concentration of the various test drugs was calculated. The concentration of test drug which inhibits the synthesis of SRS-A by 50% (IC50) was determined for each test drug from a plot of the mean percent inhibition versus the log of drug concentration. The difference of units of SRS-A in the test sample used in the fraction given above was obtained by subtracting from the units of SRS-A in the control from the actual measurement of the units of SRS-A in the sample.

[2] = target: T1, Δ^12-lipoxygenase (Human Platelet) (Homo sapiens, UniProt P18054); assay: Δ^12-lipoxygenase assay (conversion of 14C-arachidonic acid to 12-HETE, human platelet enzyme); format: biochemical; conditions: 3-4 μM arachidonic acid
T1 construct: using human platelets as the enzyme source; from tissue; host or cells: human platelets (washed, lysed by freezing and thawing; 100,000×g supernatant, 50% ammonium sulfate precipitate)
T1 sequence (P18054 1-663): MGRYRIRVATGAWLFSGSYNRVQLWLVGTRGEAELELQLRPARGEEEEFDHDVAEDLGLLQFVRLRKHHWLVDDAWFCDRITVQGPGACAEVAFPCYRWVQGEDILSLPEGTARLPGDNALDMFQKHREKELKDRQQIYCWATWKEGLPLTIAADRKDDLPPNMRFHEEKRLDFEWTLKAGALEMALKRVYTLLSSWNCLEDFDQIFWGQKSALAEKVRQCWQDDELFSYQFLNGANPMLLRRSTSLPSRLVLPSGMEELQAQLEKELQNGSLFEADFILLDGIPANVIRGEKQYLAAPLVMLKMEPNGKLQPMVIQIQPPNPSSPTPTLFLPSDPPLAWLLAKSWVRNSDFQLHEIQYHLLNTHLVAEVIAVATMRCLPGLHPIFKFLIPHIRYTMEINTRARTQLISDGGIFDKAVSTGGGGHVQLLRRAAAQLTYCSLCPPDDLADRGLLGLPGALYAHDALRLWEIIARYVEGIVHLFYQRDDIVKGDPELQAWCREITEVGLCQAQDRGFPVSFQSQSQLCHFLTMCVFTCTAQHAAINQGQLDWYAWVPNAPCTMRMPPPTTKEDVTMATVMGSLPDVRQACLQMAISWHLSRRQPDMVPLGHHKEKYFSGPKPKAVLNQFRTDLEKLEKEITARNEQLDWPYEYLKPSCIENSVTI
Protocol: Δ^12 -lipoxygenase activity was measured by following the conversion of ^14 C-arachidonic acid (AA) to ^14 C-12-hydroxy-5,8,10,14-eicosatetraenoic acid (12-HETE) using human platelets as the enzyme source. Washed human platelets from approximately 2000 ml of blood were suspended in 50 ml of phosphate buffered saline (PBS) and then lysed by freezing and thawing (3 times). The platelet lysate was homogenized using a glass-teflon homogenizer and then particulate material was sedimented by centifugation at 100,000×g for 1 hr and the sediment was discarded. The supernatant was made 50% by weight saturated with respect to (NH4)2 SO4 by adding solid ammonium sulfate. The resultant suspension was allowed to stand at 0° overnight. The precipitate was collected by centrifugation and was dissolved in approximately 25 ml of PBS. This solution was the enzyme solution utilized to catalyze the conversion of AA to 12 HETE.
In order to test the compounds, separate incubation tubes for each of the compounds and for concentrations of these compounds were prepared in an ice bath. These tubes each contained 140 μl of PBS containing 1.78 mM glutathione, 10 μl of test drug in ethanol, 50 μl of platelet supernatant, and 50 μl of ^14 C-AA. […] Incubation tubes were prepared containing only buffer ethanol and ^14 c-AA were included as substrate controls. The final concentration of AA added as its ammonium salt in PBS, in each of the incubation tubes 3-4 μM. Sufficient enzyme solution prepared as above was added so that, under the conditions of the assay, approximately 80-90% by weight of the ^14 C-AA was converted to 12-HETE, as determined by prior controls. The tubes were incubated at 37° for 2 min, the reaction was stopped by the addition, while mixing on a mixer, of 2 ml of diethyl ether and 50 μl of 1M citric acid. The ether in the presence of citric acid extracted 12-HETE and AA from enzyme in the reaction medium in each of the samples. The ether extract was evaporated to dryness under nitrogen and then the residue was dissolved in 50 μl of chloroform:methanol (2:1 parts by volume). The dissolved residue containing 12-HETE and AA was applied, as rapidly as possible, to a glass fiber sheet impregnated with silica gel and then the chromatogram was developed using isooctane:methylethylketone:acetic acid (100:9:1 parts by volume) as solvent. Radioactive products and unconverted ^14 C-AA were located using a thin-layer chromatography scanner. The appropriate regions of the chromatogram were cut out, then the radioactivity quantitated using a liquid scintillation counter. The amount of ^14 C-AA converted to product is used as a measure of Δ^12 -lipoxygenase activity.
The mean percent inhibition was calculated by multiplying 100 times the following fraction: [formula] at each concentration of the various test drugs was calculated.

[3] = target: T2, Prostaglandin endoperoxide synthase (Ovis aries, UniProt P05979); assay: Prostaglandin endoperoxide synthase (PES) assay, oxygen uptake with sheep seminal vesicular gland microsomes; format: biochemical; conditions: 33 μM arachidonic acid, pH 8.5
T2 construct: sheep seminal vesicular gland microsomes (SSVM) as the enzyme source; from tissue; host or cells: sheep seminal vesicular gland microsomes, acetone powder
T2 sequence (P05979 25-600): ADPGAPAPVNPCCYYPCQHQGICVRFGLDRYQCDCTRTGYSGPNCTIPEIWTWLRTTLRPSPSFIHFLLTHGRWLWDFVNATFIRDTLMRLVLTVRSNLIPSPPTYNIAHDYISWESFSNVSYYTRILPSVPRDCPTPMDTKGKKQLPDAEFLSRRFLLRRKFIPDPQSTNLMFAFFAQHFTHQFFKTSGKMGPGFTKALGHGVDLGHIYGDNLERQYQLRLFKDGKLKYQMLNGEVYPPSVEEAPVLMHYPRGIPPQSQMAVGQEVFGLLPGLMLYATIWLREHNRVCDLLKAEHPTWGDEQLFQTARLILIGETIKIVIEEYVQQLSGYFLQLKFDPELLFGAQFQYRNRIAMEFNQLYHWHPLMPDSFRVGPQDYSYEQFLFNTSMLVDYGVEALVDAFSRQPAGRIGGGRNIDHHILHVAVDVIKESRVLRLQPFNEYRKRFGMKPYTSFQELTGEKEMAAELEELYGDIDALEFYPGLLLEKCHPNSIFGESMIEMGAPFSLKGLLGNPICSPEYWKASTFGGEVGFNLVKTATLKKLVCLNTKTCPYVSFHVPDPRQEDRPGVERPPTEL
Protocol: The activity of PES was measured polarigraphically by following the disappearance of dissolved O2 from incubation mixtures containing arachidonic acid (AA) as substrate and sheep seminal vesicular gland microsomes (SSVM) as the enzyme source. Fifty mg of an acetone powder of SSVM were suspended, using a glass teflon homogenizer, in 1 ml of 0.1M tris. HCl (pH, 8.5) containing 0.67 mM phenol. This suspension of SSVM was incubated at room temperature in the presence of phenol to maximumly activate the PES and then the suspension was kept at 0°. Samples in a separate reaction vessel were each prepared by adding tris-phenol buffer (2.8 ml), 0.05 ml of the SSVM suspension, and a maximum of 0.12 ml of ethanol containing various concentrations of the test drug. […] Reaction vessels were then allowed to reach temperature equilibrium. An oxygen electrode is inserted into the vessel and then 24 μl of 4.1 mM AA are injected into the sealed vessel through a port on the side of the electrode. The final concentration of AA is 33 μM. Oxygen uptake is recorded and the initial rate of oxygen uptake used as a measure of PES activity. Each of the test compounds were tested initially at a high concentration (1 mM) and then, if required, dilutions are made. The mean percent inhibition was obtained for each concentration of the various test drugs by expressing as a percent the number obtained by dividing the difference of the oxygen uptake of the test sample by the oxygen uptake of the control. The concentration of test drug which inhibits the synthesis of PES by 50% (IC50) which is given in the following table was determined for each test drug from a plot of mean percent inhibition verses drug concentration. The difference of the oxygen uptake of test sample was obtained by subtracting from the oxygen uptake of the control, the oxygen uptake of the test sample.

[4] = system: SRS-A synthesis (Rat Peritoneal Cells); conditions: statement on standard; cited from earlier work
[5] = target: T1, Δ^12-lipoxygenase (Human Platelet); conditions: statement on standard; cited from earlier work
[6] = target: T2, Prostaglandin endoperoxide synthase; conditions: statement on standard; cited from earlier work

Row | SMILES | IC50 [1] | inhibition at 10 µM [1] | IC50 [2] | IC50 [3] | inhibition of SRS-A synthesis (in words) [4] | inhibition of Δ^12-lipoxygenase (in words) [5] | inhibition of prostaglandin endoperoxide synthase (in words) [6]
1 | CCCCCC#CCC#CCCCCCCCC(=O)O [9,12-Octadecadiynoic Acid, reference compound] | 3 µM | 87 ± 1% | ≥ 100 µM | 0.1 to 1 µM | potent standard inhibitor of SRS-A synthesis | not being an inhibitor of Δ^12 lipoxygenase | potent standard inhibitor
2 | CCCCCC#CCC#CCC#CCC#CCCCC(=O)O [5,8,11,14-Eicosatetraynoic Acid, reference compound] | 3 to 4 µM | 100% |  | 5 µM | standard potent inhibitor of SRS-A synthesis | potent inhibitor | potent inhibitor
3 | CCCCC/C=C\CCCCC#CCC#CCCC(F)C1=NC(C)(C)CO1 (stereo not drawn) [Compound 8, 2-(1-fluorononadec-13(Z)-en-4,7-diynyl)-4,5-dihydro-4,4-dimethyloxazole] | < 10 µM | 88 ± 6% | > 100 µM |  |  |  | 
4 | CCCCCCCC/C=C\CC#CCC#CCCCC(=O)O [Compound 5, (Z,Z)-11-eicosen-5,8-diynoic acid] | 1 to 3 µM | 100% | 13 µM | > 100 µM |  |  | 
5 | CCCCC/C=C\C/C=C\CC#CCC#CCCCC(=O)OC [Compound 4, (Z,Z)-11,14-eicosadien-5,8-diynoic acid methyl ester] | < 10 µM | 85 ± 8% | 10 to 100 µM |  |  |  | 
6 | CCCCC/C=C\CCCCC#CCC#CCCCC(=O)O [Compound 6, (Z)-14-eicosen-5,8-diynoic acid] | 1 to 3 µM | 100% | ~100 µM | > 100 µM |  |  | 
7 | CCCCC/C=C\C/C=C\CC#CCC#CCCCC(=O)O [Compound 3, (Z,Z)-11,14-eicosadien-5,8-diynoic acid] |  | 81 ± 6% | 10 to 100 µM | 10 to 100 µM |  |  | 
8 | CCCCC/C=C\CCCCC#CCC#CCCCC1=NC(C)(C)CO1 [Compound 7, 2[(Z)-13-nonadecen-4,7-diynyl]-4,5-dihydro-4,4-dimethyloxazole] | < 10 µM | 86 ± 8% | ~100 µM |  |  |  | 
